Assay results: PubChem BioAssay (NCI)
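Five compound concentrations were applied to cells in 96-well plates for 48 hours; endpoints were derived by simple linear interpolation of the resulting dose-response curve. The concentration for 50% growth inhibition is given as GI50. The concentration for full growth arrest is given as TGI.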

Experiments:
Test in all cases: inhibition of tumour cell growth, NCI panel, 48 h
UACC-62 melanoma = system: UACC-62 melanoma
SK-MEL-5 melanoma = system: SK-MEL-5 melanoma
SF-539 CNS = system: SF-539 CNS
OVCAR-5 ovarian = system: OVCAR-5 ovarian
RXF 393 renal = system: RXF 393 renal
NCI/ADR-RES ovarian = system: NCI/ADR-RES ovarian
COLO 205 colon = system: COLO 205 colon
CCRF-CEM leukemia = system: CCRF-CEM leukemia
HCC-2998 colon = system: HCC-2998 colon
EKVX NSCLC = system: EKVX NSCLC

| Compound | GI50 (UACC-62 melanoma) | TGI (UACC-62 melanoma) | GI50 (SK-MEL-5 melanoma) | TGI (SK-MEL-5 melanoma) | GI50 (SF-539 CNS) | TGI (SF-539 CNS) | GI50 (OVCAR-5 ovarian) | TGI (OVCAR-5 ovarian) | GI50 (RXF 393 renal) | TGI (RXF 393 renal) | GI50 (NCI/ADR-RES ovarian) | TGI (NCI/ADR-RES ovarian) | GI50 (COLO 205 colon) | TGI (COLO 205 colon) | GI50 (CCRF-CEM leukemia) | TGI (CCRF-CEM leukemia) | GI50 (HCC-2998 colon) | TGI (HCC-2998 colon) | GI50 (EKVX NSCLC) | TGI (EKVX NSCLC) |
| --- | --- | --- | --- | --- | --- | --- | --- | --- | --- | --- | --- | --- | --- | --- | --- | --- | --- | --- | --- | --- |
| COC1=C(OC)[C@]2(OC)c3c(O)c(OC)c4c(c3O[C@@]23O[C@@H](c2ccccc2)CC=C3C1=O)[C@@H](OC)C[C@H](c1ccccc1)O4 | 1820 nM | 3830 nM | 739 nM | 1960 nM | 421 nM | 1540 nM | 1500 nM | 2930 nM | 1350 nM | 3170 nM | 607 nM | 3740 nM | 326 nM | 1440 nM | 17.3 nM | 63.1 nM | 1400 nM | 3320 nM | 1300 nM | 2750 nM |
| C[C@@H](NC(=O)c1ccc(F)cc1)c1ccc2c(c1)CCN2C(=O)C1CCOCC1 | 93500 nM | > 100000 nM | > 100000 nM | > 100000 nM | > 100000 nM | > 100000 nM | > 100000 nM | > 100000 nM | > 100000 nM | > 100000 nM | > 100000 nM | > 100000 nM | > 100000 nM | > 100000 nM | > 100000 nM | > 100000 nM | > 100000 nM | > 100000 nM | > 100000 nM | > 100000 nM |
| C=C1C(=O)O[C@H]2[C@H]1CC/C(COC(=O)NCc1c[nH]c3ccc(F)cc13)=C\CC[C@@]1(C)O[C@@H]21 | 1470 nM | 2870 nM | 1690 nM | 3110 nM | 1630 nM | 3360 nM | 1810 nM | 4050 nM | 1530 nM | 3000 nM | 3580 nM | 20300 nM | 1390 nM | 2950 nM | 302 nM | 1200 nM | 1770 nM | 3410 nM | 1890 nM | 4510 nM |
